Molecular target: T1, EBP-Ig (N-terminal 225 amino acids of the human EPO receptor joined to an Ig heavy chain) (Homo sapiens, UniProt P19235)
T1 construct: Ig heavy chain (fusion partner); made in house; host or cells: NSO cells (secreted into conditioned media)
T1 sequence (P19235 25-250 limits assumed): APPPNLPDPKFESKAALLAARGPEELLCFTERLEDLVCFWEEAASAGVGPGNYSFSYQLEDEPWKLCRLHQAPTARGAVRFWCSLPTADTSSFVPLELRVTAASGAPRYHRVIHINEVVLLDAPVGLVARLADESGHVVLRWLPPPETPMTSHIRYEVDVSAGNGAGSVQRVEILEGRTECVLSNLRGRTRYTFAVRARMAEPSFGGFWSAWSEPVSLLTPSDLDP
Assay: Inhibition of [125I]EPO binding to immobilized EBP-Ig (EPO binding protein-Ig), scintillation Flash plate competition assay
Details: 50 μM compound; Table 20A

COC(=O)C(COC(C)(C)C)NCC=Cc1cccc(Oc2ccccc2)c1 (stereo not shown) [cpd 352, N-(3-phenoxycinnamyl)Ser(t-Bu)-OMe]
EPO/EBP-Ig % inh @ 50 μM: 8%
